Assay results published in BindingDB's records for doi:10.1021/jm0607451 (Wyeth Research, 2006).

Target: Pepsin A-4 (Homo sapiens, UniProt P0DJD7)
Test: FRET-based Peptide Cleavage Assay
Settings: pH 4.5; 22 °C

Chain of Pepsin A-4 (P0DJD7 whole entry): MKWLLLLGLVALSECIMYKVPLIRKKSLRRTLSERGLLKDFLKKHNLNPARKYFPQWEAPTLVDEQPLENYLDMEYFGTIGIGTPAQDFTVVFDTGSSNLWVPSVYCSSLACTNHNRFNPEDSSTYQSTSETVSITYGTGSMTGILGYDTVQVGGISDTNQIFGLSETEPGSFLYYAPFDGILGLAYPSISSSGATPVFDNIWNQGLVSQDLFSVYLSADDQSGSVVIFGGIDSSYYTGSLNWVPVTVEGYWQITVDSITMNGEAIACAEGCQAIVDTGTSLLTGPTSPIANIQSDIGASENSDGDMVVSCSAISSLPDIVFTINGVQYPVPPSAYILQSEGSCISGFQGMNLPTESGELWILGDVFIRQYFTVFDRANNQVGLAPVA

IC50, > 50 µM:
NC(N)=NC(=O)Cn1c(-c2ccccc2)ccc1C12CC3CC(CC(C3)C1)C2 [2-[2-(adamantan-1-yl)-5-phenyl-1H-pyrrol-1-yl]-N-(diaminomethylidene)acetamide]
N/C(=N/C(=O)Cn1c(-c2ccccc2)ccc1C12CC3CC(CC(C3)C1)C2)NCCCO [2-[2-(adamantan-1-yl)-5-phenyl-1H-pyrrol-1-yl]-N-[(1Z)-amino[(3-hydroxypropyl)amino]methylidene]acetamide]
CCCOc1ccc(-c2ccc(-c3ccccc3Cl)n2CC(=O)NC(=N)NCCCO)cc1 [N-[(1Z)-amino[(3-hydroxypropyl)amino]methylidene]-2-[2-(2-chlorophenyl)-5-(4-propoxyphenyl)-1H-pyrrol-1-yl]acetamide]
CC(=O)c1ccc(Oc2ccc(-c3ccc(-c4ccccc4Cl)n3CC(=O)NC(=N)N)cc2)cc1 [2-[2-(2-chlorophenyl)-5-[4-(4-acetylphenoxy)phenyl]-1H-pyrrol-1-yl]-N-(diaminomethylidene)acetamide]
